ChEMBL document CHEMBL3885861, “Open TG-GATES”

Species: Rattus norvegicus
Experiment: Open TG-GATES - Regimen: Daily Repeat
Type: toxicity, organism-based, Sprague-Dawley
Parameters: regimen Daily Repeat, gender Male, age 6 weeks
Conditions: in vivo, po, route gavage; for Bas / Eos / Fbg / Hb / Ht / MCV / Mono / Neu / Plat / RBC / Ret / WBC / MCHC: tissue Blood; for KIDNEY_L / KIDNEY_R / KIDNEY_TOTAL: tissue Kidney; for LIVER: tissue Liver; for ALP / AST / BUN / CRE / DBIL / GLC / IP / K / LDH / Na / PL / RALB / TBIL / TC / TG / TP / gamma-GTP: tissue Plasma
[1] = 60 mg/kg, 72 h, dose level Middle, time 3 day
[2] = 60 mg/kg, […], dose level Middle, time 7 day
[3] = 60 mg/kg, […], dose level Middle, time 14 day
[4] = 60 mg/kg, […], dose level Middle, time 28 day
[5] = 200 mg/kg, 72 h, dose level High, time 3 day
[6] = 200 mg/kg, […], dose level High, time 7 day
[7] = 200 mg/kg, […], dose level High, time 14 day
[8] = 200 mg/kg, […], dose level High, time 28 day

SMILES: CO[C@H]1/C=C/O[C@@]2(C)Oc3c(C)c(O)c4c(O)c(c(/C=N/N5CCN(C)CC5)c(O)c4c3C2=O)NC(=O)/C(C)=C\C=C\[C@H](C)[C@H](O)[C@@H](C)[C@@H](O)[C@@H](C)[C@H](OC(C)=O)[C@@H]1C [RIFAMPIN]
- TERMINAL_BW [1]: 238.2 g
- Bas [1]: 0%
- Eos [1]: 1%
- Fbg [1]: 236.6 mg/dL
- Hb [1]: 13.8 g/dL
- Ht [1]: 41.4%
- MCV [1]: 62.9 fL
- Mono [1]: 5.8%
- Neu [1]: 7.4%
- Plat [1]: 118.3 x10_4/uL
- RBC [1]: 658.2 x10_4/ul
- Ret [1]: 5.7%
- KIDNEY_L [1]: 1 g
- KIDNEY_R [1]: 1 g
- KIDNEY_TOTAL [1]: 2 g
- LIVER [1]: 11.3 g
- ALP [1]: 841.6 IU/L
- AST [1]: 60.4 IU/L
- BUN [1]: 19 mg/dL
- CRE [1]: 0.6 mg/dL
- DBIL [1]: 0.02 mg/dL
- GLC [1]: 189 mg/dL
- IP [1]: 9 mg/dL
- K [1]: 4.7 meq/L
- LDH [1]: 98.8 IU/L
- Na [1]: 139.2 meq/L
- PL [1]: 135.4 mg/dL
- RALB [1]: 3.6 g/dL
- TBIL [1]: 0.4 mg/dL
- TC [1]: 83 mg/dL
- TG [1]: 71 mg/dL
- TP [1]: 5.7 g/dL
- gamma-GTP [1]: 1 IU/L
- TERMINAL_BW [2]: 259.9 g
- TERMINAL_BW [3]: 298.5 g
- TERMINAL_BW [4]: 379.8 g
- Bas [2]: 0%
- Eos [2]: 0.6%
- Fbg [2]: 239.6 mg/dL
- Hb [2]: 14.1 g/dL
- Ht [2]: 42.6%
- MCV [2]: 62.5 fL
- Mono [2]: 5.2%
- Neu [2]: 7%
- Plat [2]: 107 x10_4/uL
- RBC [2]: 683.2 x10_4/ul
- Ret [2]: 5.7%
- WBC [2]: 130.9 x10_2/uL
- Bas [3]: 0%
- Eos [3]: 0.6%
- Fbg [3]: 226.6 mg/dL
- Hb [3]: 15.2 g/dL
- Ht [3]: 44.9%
- MCHC [3]: 33.8%
- MCV [3]: 60.6 fL
- Mono [3]: 3.2%
- Neu [3]: 3.4%
- Plat [3]: 115.2 x10_4/uL
- RBC [3]: 742.6 x10_4/ul
- Ret [3]: 3.5%
- WBC [3]: 161.2 x10_2/uL
- Bas [4]: 0%
- Eos [4]: 1%
- Fbg [4]: 226.4 mg/dL
- Hb [4]: 15.2 g/dL
- Ht [4]: 44.9%
- MCHC [4]: 33.8%
- MCV [4]: 55.8 fL
- Mono [4]: 3.4%
- Neu [4]: 9.6%
- Plat [4]: 117.9 x10_4/uL
- RBC [4]: 803.6 x10_4/ul
- Ret [4]: 2.3%
- WBC [4]: 138.4 x10_2/uL
- KIDNEY_L [2]: 1.1 g
- KIDNEY_R [2]: 1.1 g
- KIDNEY_TOTAL [2]: 2.2 g
- KIDNEY_L [3]: 1.1 g
- KIDNEY_R [3]: 1.2 g
- KIDNEY_TOTAL [3]: 2.3 g
- KIDNEY_L [4]: 1.3 g
- KIDNEY_R [4]: 1.3 g
- KIDNEY_TOTAL [4]: 2.7 g
- LIVER [2]: 11.6 g
- LIVER [3]: 12.9 g
- LIVER [4]: 14.8 g
- ALP [2]: 813.8 IU/L
- AST [2]: 64.6 IU/L
- BUN [2]: 16.8 mg/dL
- CRE [2]: 0.5 mg/dL
- DBIL [2]: 0.032 mg/dL
- GLC [2]: 193.6 mg/dL
- IP [2]: 8 mg/dL
- K [2]: 5 meq/L
- LDH [2]: 89.4 IU/L
- Na [2]: 139.2 meq/L
- PL [2]: 145.4 mg/dL
- RALB [2]: 3.9 g/dL
- TBIL [2]: 0.3 mg/dL
- TC [2]: 80.4 mg/dL
- TG [2]: 90.6 mg/dL
- TP [2]: 6 g/dL
- gamma-GTP [2]: 2.4 IU/L
- ALP [3]: 779.4 IU/L
- AST [3]: 58.6 IU/L
- BUN [3]: 18.2 mg/dL
- CRE [3]: 0.5 mg/dL
- DBIL [3]: 0.044 mg/dL
- GLC [3]: 193.4 mg/dL
- IP [3]: 7.7 mg/dL
- K [3]: 5.2 meq/L
- LDH [3]: 70.8 IU/L
- Na [3]: 139.8 meq/L
- PL [3]: 160.8 mg/dL
- RALB [3]: 3.9 g/dL
- TBIL [3]: 0.3 mg/dL
- TC [3]: 83.6 mg/dL
- TG [3]: 116.6 mg/dL
- TP [3]: 6.1 g/dL
- gamma-GTP [3]: 1.2 IU/L
- ALP [4]: 610.4 IU/L
- AST [4]: 55.6 IU/L
- BUN [4]: 18.4 mg/dL
- CRE [4]: 0.6 mg/dL
- DBIL [4]: 0.038 mg/dL
- GLC [4]: 185 mg/dL
- IP [4]: 7 mg/dL
- K [4]: 4.4 meq/L
- LDH [4]: 76.2 IU/L
- Na [4]: 140.6 meq/L
- PL [4]: 159.6 mg/dL
- RALB [4]: 4 g/dL
- TBIL [4]: 0.3 mg/dL
- TC [4]: 81.6 mg/dL
- TG [4]: 132 mg/dL
- TP [4]: 6.2 g/dL
- gamma-GTP [4]: 1.2 IU/L
- TERMINAL_BW [5]: 223.8 g
- Bas [5]: 0%
- Eos [5]: 1%
- Fbg [5]: 229 mg/dL
- Hb [5]: 14.3 g/dL
- Ht [5]: 43.3%
- MCHC [5]: 33.1%
- MCV [5]: 63.4 fL
- Mono [5]: 5%
- Neu [5]: 2.6%
- Plat [5]: 122.5 x10_4/uL
- RBC [5]: 684 x10_4/ul
- Ret [5]: 3.9%
- WBC [5]: 123.3 x10_2/uL
- KIDNEY_L [5]: 1 g
- KIDNEY_R [5]: 1 g
- KIDNEY_TOTAL [5]: 2.1 g
- LIVER [5]: 10.2 g
- ALP [5]: 864.8 IU/L
- AST [5]: 61.8 IU/L
- BUN [5]: 15.8 mg/dL
- CRE [5]: 0.5 mg/dL
- DBIL [5]: 0.1 mg/dL
- GLC [5]: 189 mg/dL
- IP [5]: 8.8 mg/dL
- K [5]: 5.1 meq/L
- LDH [5]: 204.6 IU/L
- Na [5]: 138.8 meq/L
- PL [5]: 108 mg/dL
- RALB [5]: 3.7 g/dL
- TBIL [5]: 0.6 mg/dL
- TC [5]: 67 mg/dL
- TG [5]: 48.2 mg/dL
- TP [5]: 6 g/dL
- gamma-GTP [5]: 1.2 IU/L
- TERMINAL_BW [6]: 249 g
- TERMINAL_BW [7]: 298.6 g
- TERMINAL_BW [8]: 356.4 g
- Bas [6]: 0%
- Eos [6]: 0.4%
- Fbg [6]: 226.8 mg/dL
- Hb [6]: 13.8 g/dL
- Ht [6]: 41.1%
- MCHC [6]: 33.5%
- MCV [6]: 62.9 fL
- Mono [6]: 6.4%
- Neu [6]: 7.4%
- Plat [6]: 106.5 x10_4/uL
- RBC [6]: 653.6 x10_4/ul
- Ret [6]: 4.7%
- WBC [6]: 165.2 x10_2/uL
- Bas [7]: 0%
- Eos [7]: 0.2%
- Fbg [7]: 222.4 mg/dL
- Hb [7]: 13.9 g/dL
- Ht [7]: 41.2%
- MCHC [7]: 33.7%
- MCV [7]: 58.7 fL
- Mono [7]: 3.4%
- Neu [7]: 4.8%
- Plat [7]: 114.3 x10_4/uL
- RBC [7]: 702.8 x10_4/ul
- Ret [7]: 4.2%
- WBC [7]: 185.6 x10_2/uL
- Bas [8]: 0%
- Eos [8]: 0.6%
- Fbg [8]: 214.4 mg/dL
- Hb [8]: 14 g/dL
- Ht [8]: 42.2%
- MCHC [8]: 33.1%
- MCV [8]: 53.7 fL
- Mono [8]: 5.4%
- Neu [8]: 8.8%
- Plat [8]: 111.8 x10_4/uL
- RBC [8]: 786.6 x10_4/ul
- Ret [8]: 2.4%
- WBC [8]: 116.3 x10_2/uL
- KIDNEY_L [6]: 1 g
- KIDNEY_R [6]: 1 g
- KIDNEY_TOTAL [6]: 2 g
- KIDNEY_L [7]: 1.2 g
- KIDNEY_R [7]: 1.2 g
- KIDNEY_TOTAL [7]: 2.4 g
- KIDNEY_L [8]: 1.3 g
- KIDNEY_R [8]: 1.3 g
- KIDNEY_TOTAL [8]: 2.6 g
- LIVER [6]: 12.2 g
- LIVER [7]: 13.9 g
- LIVER [8]: 16.8 g
- ALP [6]: 976.6 IU/L
- AST [6]: 62.2 IU/L
- BUN [6]: 17.4 mg/dL
- CRE [6]: 0.5 mg/dL
- DBIL [6]: 0.2 mg/dL
- GLC [6]: 181.2 mg/dL
- IP [6]: 9 mg/dL
- K [6]: 4.9 meq/L
- LDH [6]: 158.4 IU/L
- Na [6]: 139.8 meq/L
- PL [6]: 139.6 mg/dL
- RALB [6]: 3.9 g/dL
- TBIL [6]: 0.5 mg/dL
- TC [6]: 74.8 mg/dL
- TG [6]: 75.8 mg/dL
- TP [6]: 6.2 g/dL
- gamma-GTP [6]: 1.8 IU/L
- ALP [7]: 781 IU/L
- AST [7]: 60.2 IU/L
- CRE [7]: 0.5 mg/dL
- DBIL [7]: 0.2 mg/dL
- GLC [7]: 182.2 mg/dL
- IP [7]: 8.3 mg/dL
- K [7]: 4.9 meq/L
- LDH [7]: 163.8 IU/L
- Na [7]: 140.8 meq/L
- PL [7]: 144.8 mg/dL
- RALB [7]: 4.1 g/dL
- TBIL [7]: 0.4 mg/dL
- TC [7]: 82.2 mg/dL
- TG [7]: 73 mg/dL
- TP [7]: 6.1 g/dL
- gamma-GTP [7]: 1.8 IU/L
- ALP [8]: 771 IU/L
- AST [8]: 54.8 IU/L
- BUN [8]: 19.2 mg/dL
- CRE [8]: 0.5 mg/dL
- DBIL [8]: 0.3 mg/dL
- GLC [8]: 185.4 mg/dL
- K [8]: 4.4 meq/L
- LDH [8]: 160.6 IU/L
- Na [8]: 141.2 meq/L
- PL [8]: 134 mg/dL
- RALB [8]: 4.1 g/dL
- TBIL [8]: 0.6 mg/dL
- TC [8]: 76 mg/dL
- TG [8]: 75.4 mg/dL
- TP [8]: 6.3 g/dL
- gamma-GTP [8]: 0.8 IU/L
